Reference: US10624876B2, “Derivatives of indole for the treatment of endometriosis” (BIOKINESIS, priority 2016, dated 2020)

Tested on: endometriosis lesions
Experiment: Ex vivo clinical evaluation of endometriosis lesions (intraperitoneal uterine horn implants) in syngenic mice
Conditions: estradiol at D-1, implants at D0, nanosuspension (50 mg/mL) i.v. 100 mg/kg/BW every 2 days from D7 to D21, sacrificed at D23, versus control group (Vehicle)
Method: FIG. 2: Ex vivo clinical evaluation (implant volume (mm^3) and weight (g)) in syngenic mice.
Example 1: Echographic and Ex Vivo Evaluation of Endometriosis Lesions in Syngenic Mice Treated with Compound 38
More particularly, 20 syngenic mices were engraved estradiol at D-1. Intraperitoneal Uterine Horsn implant have been implanted in each mouse at DO. A nanosuspension of compound 38 (50 mg/mL) has been intravenously administered in 10 mice (treated group) at a 100 mg/kg/BW dose from D7 to D21 every 2 days.
Mices have been sacrified at D23 and implants have been removed for ex vivo clinical evaluation.

## COc1ccc(C#N)cc1/C=C(\C#N)c1c[nH]c2ccc(Br)cc12 [Compound 38, (Z)-3-(2-(5-bromo-1H-indol-3-yl)-2-cyanovinyl)-4-methoxybenzonitrile]
  implant volume: lower than those of the control group
  implant weight: lower than those of the control group
